The target in assay [1] is T1, RslTpt1 (Runella slithyformis, UniProt A0A7U3ZK32).
T1 sequence (A0A7U3ZK32 5-178): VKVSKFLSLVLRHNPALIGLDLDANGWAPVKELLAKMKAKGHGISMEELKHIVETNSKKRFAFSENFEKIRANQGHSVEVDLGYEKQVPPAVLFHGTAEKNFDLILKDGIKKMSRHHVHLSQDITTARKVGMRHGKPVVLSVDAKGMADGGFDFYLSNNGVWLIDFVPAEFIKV
Put plainly: NMR ligand-induced chemical shift perturbations on RslTpt1. Type of assay: binding. To be noted: for backbone chemical shift perturbations induced on RslTpt1 (result in words): 15N,1H HSQC, 10 molar equivalents of ligand.

Assay [2] addresses T1, RslTpt1. Put plainly: Isothermal titration calorimetry. The assay is classed as binding. (In general: ITC needs no label: the signal is the heat of the interaction.)

“And” between values parts separate entries of the source, which are not always exact repeats. Identical values can stand only once.

On to `NC(=O)c1ccc[n+]([C@@H]2O[C@H](COP(=O)([O-])OP(=O)(O)OC[C@H]3O[C@@H](n4cnc5c(N)ncnc54)[C@H](OP(=O)(O)O)[C@@H]3O)[C@@H](O)[C@H]2O)c1` [NADP^+], for which the “average backbone amide chemical shift perturbation Δδ, N-lobe” value in assay [1] (15N,1H resonances, 4 molar equivalents of NADP^+) was 0.02 ± 0.03 ppm and 0.02 ppm. Besides, the “fold less affinity than NAD^+” value in assay [2] (ratio of ITC KD values, NADP^+ versus NAD^+) was roughly 30 fold. Further, the Kd in assay [2] (read-out: apparent KD, ITC, 17°C, approximate value) was roughly 1000 µM.

Take `NC(=O)c1ccc[n+]([C@@H]2O[C@H](COP(=O)([O-])O)[C@@H](O)[C@H]2O)c1` [NMN, β-nicotinamide mononucleotide]: the “backbone chemical shift perturbations induced on RslTpt1 (result in words)” value in assay [1] is recorded as “no significant CSPs”.

Regarding `NC(=O)c1cccnc1` [Nicotinamide, nicotinamide], the “backbone chemical shift perturbations induced on RslTpt1 (result in words)” value in assay [1] is on record as “no significant CSPs”.

For the origin of these results see article PMC8464070 (Nucleic Acids Research, 2021).
